This is an account of results in patent publication US20230373952A1, “LACTAM COMPOUNDS AS Kv1.3 POTASSIUM SHAKER CHANNEL BLOCKERS” (D.E. Shaw Research, LLC, priority 2020, published 2023).

Broadly, the IC50 is the concentration needed to halve the response being measured.

Bounds are passed on as bounds.

Experiment [1] concerns the target T1, Kv1.3 potassium channel (Homo sapiens, UniProt P22001).
T1 construct: expressed in transfected cells
In words: Kv1.3 potassium channel blocker activity, automated whole-cell patch clamp (Patchliner). The format is cell-based. To be noted: CHO-K1 cells stably expressing Kv1.3; whole-cell current inhibition, Hill fit; read-out: Kv1.3 IC50. For orientation: In patch-clamp work, channel activity is measured electrically.

Experiment [2] addresses hERG channel (Homo sapiens, UniProt Q12809). In words: hERG electrophysiology, automated whole-cell patch clamp (Patchliner). To be noted: read-out: hERG IC50; CHO-K1 cells stably expressing hERG; whole-cell current inhibition, Hill fit.
Procedure: This assay is used to evaluate the disclosed compounds' inhibition activities against the hERG channel.
CHO-K1 cells stably expressing hERG were grown in Ham's F-12 Medium with glutamine containing 10% heat-inactivated FBS, 1% penicillin/streptomycin, hygromycin (100 μg/ml) and G418 (100 μg/ml). Cells were grown in culture flasks at 37° C. in a 5% CO2-humidified incubator.
All compounds were dissolved in DMSO at 30 mM. Compound stock solutions were freshly diluted with external solution to concentrations of 30 nM, 100 nM, 300 nM, 1 μM, 3 μM, 10 μM, 30 μM and 100 μM. The highest content of DMSO (0.3%) was present in 100 μM.
The voltage protocol (see Table I) was designed to simulate voltage changes during a cardiac action potential with a 300 ms depolarization to +20 mV (analogous to the plateau phase of the cardiac action potential), a repolarization for 300 ms to −50 mV (inducing a tail current) and a final step to the holding potential of −80 mV. The pulse frequency was 0.3 Hz. Control (compound-free) and compound pulse trains for each compound concentration applied contained 70 pulses.
Whole-cell current recordings and compound application were enabled by means of an automated patch clamp platform Patchliner (Nanion). EPC 10 patch clamp amplifier (HEKA) along with Patchmaster software (HEKA Elektronik Dr. Schulze GmbH) was used for data acquisition. Data were sampled at 10 kHz without filtering. Increasing compound concentrations were applied consecutively to the same cell without washouts in between.
AUC and PEAK values were obtained with Patchmaster (HEKA Elektronik Dr. Schulze GmbH). To determine IC50 the last single pulse in the pulse train corresponding to a given compound concentration was used. Obtained AUC and PEAK values in the presence of compound were normalized to control values in the absence of compound.

T1 sequence (P22001 whole entry): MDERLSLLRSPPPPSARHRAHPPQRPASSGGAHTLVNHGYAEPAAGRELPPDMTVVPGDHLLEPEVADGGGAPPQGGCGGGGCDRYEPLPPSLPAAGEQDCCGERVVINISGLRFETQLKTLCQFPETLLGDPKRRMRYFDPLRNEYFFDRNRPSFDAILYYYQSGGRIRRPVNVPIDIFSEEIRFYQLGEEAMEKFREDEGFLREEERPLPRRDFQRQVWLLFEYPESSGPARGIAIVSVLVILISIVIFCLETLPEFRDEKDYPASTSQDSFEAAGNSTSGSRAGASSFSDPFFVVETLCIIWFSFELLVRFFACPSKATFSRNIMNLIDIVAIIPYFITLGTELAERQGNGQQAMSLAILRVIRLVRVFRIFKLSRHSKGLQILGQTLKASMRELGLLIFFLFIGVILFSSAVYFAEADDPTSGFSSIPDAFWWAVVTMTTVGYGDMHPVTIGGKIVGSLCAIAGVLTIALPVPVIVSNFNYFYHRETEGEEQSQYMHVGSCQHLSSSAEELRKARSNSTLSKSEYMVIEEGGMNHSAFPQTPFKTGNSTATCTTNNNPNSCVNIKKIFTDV
Sequence of hERG channel (Q12809 whole entry): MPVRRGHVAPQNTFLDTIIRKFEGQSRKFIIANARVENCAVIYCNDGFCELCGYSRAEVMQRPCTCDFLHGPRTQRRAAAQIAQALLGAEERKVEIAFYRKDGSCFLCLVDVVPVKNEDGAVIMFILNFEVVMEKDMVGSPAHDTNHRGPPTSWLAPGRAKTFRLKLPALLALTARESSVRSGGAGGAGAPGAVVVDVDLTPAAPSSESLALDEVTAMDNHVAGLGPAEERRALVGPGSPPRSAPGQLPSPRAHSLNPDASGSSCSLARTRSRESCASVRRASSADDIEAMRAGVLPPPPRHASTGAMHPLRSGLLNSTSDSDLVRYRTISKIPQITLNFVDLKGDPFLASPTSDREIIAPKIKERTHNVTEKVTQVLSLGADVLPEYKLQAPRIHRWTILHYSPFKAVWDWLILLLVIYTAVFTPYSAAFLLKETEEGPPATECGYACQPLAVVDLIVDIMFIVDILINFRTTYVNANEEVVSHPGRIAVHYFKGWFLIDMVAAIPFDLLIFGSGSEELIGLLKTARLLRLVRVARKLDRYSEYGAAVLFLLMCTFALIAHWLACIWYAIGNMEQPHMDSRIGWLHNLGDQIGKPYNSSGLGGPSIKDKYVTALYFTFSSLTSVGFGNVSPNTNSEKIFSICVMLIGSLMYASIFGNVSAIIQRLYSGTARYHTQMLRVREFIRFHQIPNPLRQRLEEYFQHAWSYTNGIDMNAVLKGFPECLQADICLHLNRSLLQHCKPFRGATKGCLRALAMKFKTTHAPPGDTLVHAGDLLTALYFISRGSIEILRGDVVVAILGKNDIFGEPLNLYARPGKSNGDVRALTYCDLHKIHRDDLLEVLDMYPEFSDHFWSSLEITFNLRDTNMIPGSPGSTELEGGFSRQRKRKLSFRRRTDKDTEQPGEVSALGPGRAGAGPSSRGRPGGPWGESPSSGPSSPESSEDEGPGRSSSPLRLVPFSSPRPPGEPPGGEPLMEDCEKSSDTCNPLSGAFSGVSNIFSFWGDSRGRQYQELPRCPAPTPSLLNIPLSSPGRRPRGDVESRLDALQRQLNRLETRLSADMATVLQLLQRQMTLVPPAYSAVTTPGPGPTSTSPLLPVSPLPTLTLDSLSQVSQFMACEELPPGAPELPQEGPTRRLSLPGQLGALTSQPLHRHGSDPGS

Consider `C[C@@H]1[C@H](c2c(O)ccc(Cl)c2Cl)CC(=O)N1C1CNC1` [Compound 82, (4S,5R)-1-(azetidin-3-yl)-4-(2,3-dichloro-6-hydroxyphenyl)-5-methylpyrrolidin-2-one], for which the IC50 in experiment [1] is less than 0.1 µM; in experiment [2], greater than 30 µM.
